The source of these data is ChEMBL document CHEMBL5154843, “Discovery of spirooxadiazoline oxindoles with dual-stage antimalarial activity” (Eur J Med Chem, 2022).

In experiment [1] the test system is Plasmodium falciparum. Kind of experiment: Antiplasmodial activity against erythrocytic stage of chloroquine-resistant Plasmodium falciparum W2 measured after 48 hrs by flow cytometry. The conditions noted are these: W2, 48 h. It counts as functional, organism-based. Background: A flow cytometer gives signals particle by particle.
In experiment [2] the test system is Plasmodium berghei. As to the kind of experiment: Antiplasmodial activity against hepatic stage Plasmodium berghei infected in Huh-7 cells assessed as cell viability incubated for 1 hrs and measured by 48 hrs by bioluminescence assay. It counts as functional, organism-based.
Experiment [3] concerns Plasmodium falciparum. Kind of experiment: Antiplasmodial activity against Plasmodium falciparum 3D7 measured after 72 hrs by parasite proliferation assay. The conditions noted are these: 3D7, 72 h. Format: functional, organism-based.
For experiment [4], the system named is Plasmodium falciparum. Kind of experiment: Inhibition of plasmodium falciparum 3D7 ATP4 ATPase activity under high-soidum conditions at 50 uM.
Experiment [5] has as its system Plasmodium falciparum. As to the kind of experiment: Inhibition of plasmodium falciparum 3D7 ATP4 ATPase activity under low-soidum conditions at 50 uM.
For experiment [6], the system named is Plasmodium falciparum. As to the kind of experiment: Antiplasmodial activity against Plasmodium falciparum 3D7 assessed as effect on cytosolic sodium concentration at 50 nM measured after 90 mins by SBFI-dye based fluorescence method. Format: functional, organism-based.
Experiment [7] has as its system Plasmodium falciparum. Kind of experiment: Inhibition of plasmodium falciparum 3D7 ATP4 ATPase activity under high-soidum conditions at 125 nM.

pIC50: −log10 of the molar value. Activity calls are given as the source filed them. The rule behind the calls is not given here.

As a reminder, the pIC50 is the IC50 on a negative log10 scale, so that one unit is a factor of ten.

On to `O=C1Nc2cc(Cl)ccc2C12OC(c1ccccc1)=NN2c1cccc(Cl)c1` (stereo unspecified), for which the pIC50 in experiment [1] was 5.07; in experiment [2], 5.14. `O=C1Nc2ccccc2C12OC(c1cccc(Cl)c1)=NN2c1ccccc1` (stereo unspecified): the pIC50 in experiment [1] was < 5.00. Turning to `O=C1Nc2ccc(Cl)cc2C12OC(c1ccccc1)=NN2c1cccc(Cl)c1` (stereo unspecified), the pIC50 is 5.19 in experiment [1] and 5.15 in experiment [2]. For `O=C1Nc2c(Cl)cccc2C12OC(c1ccc(Cl)cc1)=NN2c1ccccc1` (stereo unspecified), the pIC50 in experiment [1] was < 5.00.

With `O=C1Nc2ccc(Cl)cc2C12OC(c1ccc(Cl)cc1)=NN2c1ccccc1` (stereo unspecified), in experiment [1], the pIC50 was < 5.00. Regarding `O=C1Nc2c(Cl)cccc2C12OC(c1cccc(Cl)c1)=NN2c1cccc(Cl)c1` (stereo unspecified), the negative-log IC50 (pIC50) in experiment [1] was < 5.00. Take `O=C1Nc2ccccc2C12OC(c1ccccc1)=NN2c1cccc(Cl)c1` (stereo unspecified): the pIC50 in experiment [1] was < 5.00.

Take `O=C1Nc2ccc(Br)cc2C12OC(c1ccccc1)=NN2c1cccc(Cl)c1` (stereo unspecified): the pIC50 was 5.17 in experiment [1] and 5.41 in experiment [2]. Consider `O=C1Nc2c(Cl)cccc2C12OC(c1cccc(Cl)c1)=NN2c1ccccc1` (stereo unspecified), for which the pIC50 in experiment [1] was < 5.00. As to `O=C1Nc2c(Cl)cccc2C12OC(c1ccccc1)=NN2c1ccc(Cl)cc1` (stereo unspecified), the pIC50 in experiment [1] was 5.12; in experiment [2], < 5.00.

Turning to `CC(C)(C)C1=NN(c2ccccc2Cl)C2(O1)C(=O)Nc1ccc(Cl)cc12` (stereo unspecified), the pIC50 in experiment [1] is < 5.00. With `O=C1Nc2ccc(Br)cc2C12OC(c1ccccc1)=NN2c1ccc(Cl)cc1` (stereo unspecified), the pIC50 in experiment [1] is 5.22; in experiment [2], 5.39; in experiment [3], 5.21. Also, the inhibition entry in experiment [4] and in experiment [5] was “Active” throughout. For the compound `COc1ccc(C2=NN(c3ccccc3)C3(O2)C(=O)Nc2ccccc23)cc1` (stereo unspecified), in experiment [1], the pIC50 is < 5.00. With `O=C1Nc2c(Cl)cccc2C12OC(c1ccccc1)=NN2c1cccc(Cl)c1` (stereo unspecified), in experiment [1], the negative-log IC50 (pIC50) was < 5.00. Turning to `O=C1Nc2ccc(Cl)cc2C12OC(c1cccc(Cl)c1)=NN2c1ccccc1` (stereo unspecified), the pIC50 in experiment [1] was < 5.00. On the same count and under the same terms, then `CC(C)(C)C1=NN(c2ccccc2Cl)C2(O1)C(=O)Nc1ccc(Br)cc12` (stereo unspecified), with < 5.00.

In the case of `CC(C)(C)C1=NN(c2cccc(Cl)c2)C2(O1)C(=O)Nc1cc(Br)ccc12` (stereo unspecified), the figures for the pIC50 in experiment [1] and in experiment [2] were 5.34 and 5.02, respectively.

On to `COc1ccc(C2=NN(c3ccccc3)C3(O2)C(=O)Nc2c(Cl)cccc23)cc1` (stereo unspecified), for which the pIC50 in experiment [1] was < 5.00. Consider `CC(C)(C)C1=NN(c2cccc(Cl)c2)C2(O1)C(=O)Nc1ccc(Cl)cc12` (stereo unspecified), for which the figures for the pIC50 in experiment [1] and in experiment [2] were 5.46 and 5.28, respectively. For `CC(C)(C)C1=NN(c2cccc(Cl)c2)C2(O1)C(=O)Nc1cc(Cl)ccc12` (stereo unspecified), in that order: 5.42 and < 5.00.

With `O=C1Nc2ccc(Br)cc2C12OC(c1ccc(Cl)cc1)=NN2c1ccccc1` (stereo unspecified), the pIC50 in experiment [1] was < 5.00. With `C[C@H]1Cc2c([nH]c3cc(Cl)c(F)cc23)[C@@]2(N1)C(=O)Nc1ccc(Cl)cc12`, in experiment [6], the outcome was Active. Besides, the inhibition entry in experiment [7] is “Active”. `O=C1Nc2ccc(Br)cc2C12OC(c1cccc(Cl)c1)=NN2c1ccccc1` (stereo unspecified): the pIC50 in experiment [1] was < 5.00. Take `CC(C)(C)C1=NN(c2cccc(Cl)c2)C2(O1)C(=O)Nc1ccc(Br)cc12` (stereo unspecified): the pIC50 in experiment [1] is 5.12; in experiment [2], 5.05.

Consider `COc1ccc(C2=NN(c3ccccc3)C3(O2)C(=O)Nc2ccc(Cl)cc23)cc1` (stereo unspecified), for which the negative logarithm of the IC50 (pIC50) in experiment [1] is < 5.00. For the compound `O=C1Nc2cc(Br)ccc2C12OC(c1ccccc1)=NN2c1cccc(Cl)c1` (stereo unspecified), the pIC50 in experiment [1] was < 5.00. For the compound `COc1ccc(C2=NN(c3ccccc3)C3(O2)C(=O)Nc2ccc(Br)cc23)cc1` (stereo unspecified), the negative logarithm of the IC50 (pIC50) in experiment [1] is 5.08; in experiment [2] it was < 5.00.
